Common to all, as to assay: Activity-based Protein Profiling (ABPP)
What all share (conditions): pH 7.4; 37 °C

Test [1] has as its target T1, AN1-type domain-containing protein (Archaeoglobus fulgidus (strain ATCC 49558 / DSM 4304 / JCM 9628 / NBRC 100126 / VC-16), UniProt O29251).
T1 sequence (O29251 whole entry): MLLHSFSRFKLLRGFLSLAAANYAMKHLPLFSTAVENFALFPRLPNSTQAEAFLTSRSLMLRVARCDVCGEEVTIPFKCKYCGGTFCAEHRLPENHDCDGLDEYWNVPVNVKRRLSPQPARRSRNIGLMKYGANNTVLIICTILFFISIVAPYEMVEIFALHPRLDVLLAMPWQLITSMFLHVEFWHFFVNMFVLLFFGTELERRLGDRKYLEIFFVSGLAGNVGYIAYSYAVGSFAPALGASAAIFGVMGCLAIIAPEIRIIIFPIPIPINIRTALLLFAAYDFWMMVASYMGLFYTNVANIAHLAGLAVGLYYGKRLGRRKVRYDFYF
The text has this:
(§1) We selected several inhibitor structures and determined their apparent IC50 by competitive ABPP.

The target of test [2] is T2, Rhomboid protease GlpG (Haemophilus influenzae, UniProt A0A2R3FW87).
T2 sequence (A0A2R3FW87 whole entry): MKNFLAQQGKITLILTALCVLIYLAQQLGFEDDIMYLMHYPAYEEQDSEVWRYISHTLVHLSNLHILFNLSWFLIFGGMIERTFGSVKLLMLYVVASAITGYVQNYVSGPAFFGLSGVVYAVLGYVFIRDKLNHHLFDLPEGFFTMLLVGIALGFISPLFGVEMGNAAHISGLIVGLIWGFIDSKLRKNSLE
Excerpt: as §1

The next test concerns the target T3, GlpG protein (Vibrio cholerae, UniProt Q9KVP2).
T3 sequence (Q9KVP2 whole entry): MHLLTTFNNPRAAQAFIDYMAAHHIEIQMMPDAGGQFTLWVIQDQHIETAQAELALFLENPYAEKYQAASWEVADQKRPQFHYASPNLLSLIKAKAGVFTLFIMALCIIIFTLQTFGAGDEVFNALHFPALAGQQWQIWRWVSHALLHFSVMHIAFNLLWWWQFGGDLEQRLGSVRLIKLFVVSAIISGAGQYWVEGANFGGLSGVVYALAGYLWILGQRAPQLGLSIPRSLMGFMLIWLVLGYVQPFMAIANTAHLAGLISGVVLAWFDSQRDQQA
Excerpt: as §1

Test [3] addresses T4, Rhomboid domain-containing protein (Aquifex aeolicus (strain VF5), UniProt O67346).
T4 sequence (O67346 whole entry): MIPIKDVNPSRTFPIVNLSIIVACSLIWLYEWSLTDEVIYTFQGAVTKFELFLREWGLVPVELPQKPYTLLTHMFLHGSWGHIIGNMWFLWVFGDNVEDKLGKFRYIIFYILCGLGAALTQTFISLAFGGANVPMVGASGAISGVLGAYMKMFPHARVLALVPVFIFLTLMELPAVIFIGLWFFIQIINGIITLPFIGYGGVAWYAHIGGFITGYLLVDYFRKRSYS
Excerpt: as §1

The target of test [4] is T5, Rhomboid domain-containing protein (Pyrococcus horikoshii (strain ATCC 700860 / DSM 12428 / JCM 9974 / NBRC 100139 / OT-3), UniProt O59166).
T5 sequence (O59166 whole entry): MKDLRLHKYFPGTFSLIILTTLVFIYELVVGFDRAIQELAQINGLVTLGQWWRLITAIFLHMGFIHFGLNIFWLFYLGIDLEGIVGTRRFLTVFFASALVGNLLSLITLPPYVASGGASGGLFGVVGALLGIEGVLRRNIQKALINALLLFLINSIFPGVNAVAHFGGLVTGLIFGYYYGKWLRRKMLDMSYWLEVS
Excerpt: as §1

Test [5] addresses T6, Rhomboid domain-containing protein (Thermotoga maritima (strain ATCC 43589 / DSM 3109 / JCM 10099 / NBRC 100826 / MSB8), UniProt Q9WZ53).
T6 sequence (Q9WZ53 whole entry): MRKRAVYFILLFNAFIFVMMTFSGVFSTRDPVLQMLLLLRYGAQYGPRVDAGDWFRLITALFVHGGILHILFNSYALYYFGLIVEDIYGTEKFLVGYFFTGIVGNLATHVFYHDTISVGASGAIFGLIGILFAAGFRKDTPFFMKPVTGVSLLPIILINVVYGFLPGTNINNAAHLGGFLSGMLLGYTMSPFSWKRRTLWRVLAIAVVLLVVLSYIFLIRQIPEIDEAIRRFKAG
Excerpt: as §1

The next test has as its target T7, Rhomboid protease AarA (Providencia stuartii, UniProt P46116).
T7 sequence (P46116 whole entry): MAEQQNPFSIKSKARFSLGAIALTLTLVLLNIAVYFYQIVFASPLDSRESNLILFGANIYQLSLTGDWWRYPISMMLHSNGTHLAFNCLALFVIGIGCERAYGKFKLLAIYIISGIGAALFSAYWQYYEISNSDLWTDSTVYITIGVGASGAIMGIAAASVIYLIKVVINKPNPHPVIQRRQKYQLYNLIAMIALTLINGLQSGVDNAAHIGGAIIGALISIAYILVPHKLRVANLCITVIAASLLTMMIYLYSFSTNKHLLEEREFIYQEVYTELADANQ
Excerpt: as §1

For test [6], the target named is T8, Rhomboid protease GlpG (Escherichia coli (strain K12), UniProt P09391).
T8 sequence (P09391 whole entry): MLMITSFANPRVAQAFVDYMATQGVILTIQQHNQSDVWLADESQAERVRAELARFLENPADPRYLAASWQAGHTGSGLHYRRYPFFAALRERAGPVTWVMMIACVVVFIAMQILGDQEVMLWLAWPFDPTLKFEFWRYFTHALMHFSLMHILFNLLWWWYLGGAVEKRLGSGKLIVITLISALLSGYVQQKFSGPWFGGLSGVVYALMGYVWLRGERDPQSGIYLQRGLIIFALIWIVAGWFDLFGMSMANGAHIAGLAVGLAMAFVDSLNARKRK
Excerpt: as §1

Test [7] has as its target Rhomboid protease GluP [F193S,L370F,L379S,R499W] (Bacillus subtilis (strain 168), UniProt P54493, F193S/L370F/L379S/R499W).
Excerpt: as §1

Test [8] has as its target T9, Rhomboid-related protein 1 (Mus musculus, UniProt Q8VC82).
T9 sequence (Q8VC82 whole entry): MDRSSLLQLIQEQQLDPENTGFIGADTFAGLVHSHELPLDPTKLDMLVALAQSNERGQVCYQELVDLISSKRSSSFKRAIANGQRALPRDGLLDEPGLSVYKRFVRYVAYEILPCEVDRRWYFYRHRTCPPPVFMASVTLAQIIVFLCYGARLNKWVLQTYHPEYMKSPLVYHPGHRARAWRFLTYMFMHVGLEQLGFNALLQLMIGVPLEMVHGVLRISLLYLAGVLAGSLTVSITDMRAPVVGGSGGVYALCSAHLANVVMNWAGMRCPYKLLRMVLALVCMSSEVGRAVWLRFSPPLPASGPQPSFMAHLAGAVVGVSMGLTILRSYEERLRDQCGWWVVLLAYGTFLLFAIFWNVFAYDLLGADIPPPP
Excerpt: as §1

Test [9] concerns the target T10, Rhomboid-related protein 3 (Mus musculus, UniProt P58873).
T10 sequence (P58873 whole entry): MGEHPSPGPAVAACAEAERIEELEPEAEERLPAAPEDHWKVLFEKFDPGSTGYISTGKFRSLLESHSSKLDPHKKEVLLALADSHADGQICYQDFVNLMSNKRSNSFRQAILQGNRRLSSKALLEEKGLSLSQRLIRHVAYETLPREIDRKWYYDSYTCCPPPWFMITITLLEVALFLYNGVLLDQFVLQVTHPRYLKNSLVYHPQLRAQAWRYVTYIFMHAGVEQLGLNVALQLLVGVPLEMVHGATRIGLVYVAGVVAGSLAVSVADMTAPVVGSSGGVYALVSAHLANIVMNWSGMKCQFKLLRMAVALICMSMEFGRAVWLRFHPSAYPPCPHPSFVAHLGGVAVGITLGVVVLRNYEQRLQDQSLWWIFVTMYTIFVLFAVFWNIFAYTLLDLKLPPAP
Excerpt: as §1

SMILES strings stand for the structures.

Chain of Rhomboid protease GluP [F193S,L370F,L379S,R499W] (P54493 whole entry F192S/L370F/L379S/R499W): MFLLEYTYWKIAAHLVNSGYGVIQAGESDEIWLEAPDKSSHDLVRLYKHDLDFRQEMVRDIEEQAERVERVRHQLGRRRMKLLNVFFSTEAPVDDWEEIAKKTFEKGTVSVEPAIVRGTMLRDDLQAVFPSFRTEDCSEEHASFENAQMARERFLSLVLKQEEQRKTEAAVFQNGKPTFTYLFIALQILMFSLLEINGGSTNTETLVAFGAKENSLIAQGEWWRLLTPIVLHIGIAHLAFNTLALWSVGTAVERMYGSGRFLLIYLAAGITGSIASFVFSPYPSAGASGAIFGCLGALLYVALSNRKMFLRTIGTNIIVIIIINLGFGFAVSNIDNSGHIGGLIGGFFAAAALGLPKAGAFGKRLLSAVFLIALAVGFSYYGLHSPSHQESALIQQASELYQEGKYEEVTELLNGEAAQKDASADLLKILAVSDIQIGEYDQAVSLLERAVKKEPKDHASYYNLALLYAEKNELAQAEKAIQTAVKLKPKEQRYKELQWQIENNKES

The IC50 is the point on the concentration scale where inhibition reaches its midpoint. Read a low IC50 as greater potency in that assay. `C#CCCC[C@@H]1OC(=O)[C@H]1c1cc(OC)c(OC)c(OC)c1` [(4S)‐4‐(pent‐4‐yn‐1‐yl)‐3‐(3,4,5‐trimethoxyphenyl)oxetan‐2‐one (45)]: the figures for the IC50 (in test [1]; on Rhomboid protease GlpG [2]) were 5 µM and 65 µM, respectively.
Regarding `O=c1oc(Cl)c(Cl)c2ccccc12`, the IC50 was 8.1 µM in test [1]; 27 µM against GlpG protein; 1.1 µM in [3]; 16 µM in [4]; 1 µM in test [5]; 10 µM at Rhomboid protease AarA. The IC50 came to 19 µM against Rhomboid protease GlpG [6]; 0.66 µM against Rhomboid protease GlpG [2]; 4.1 µM in test [7]; 28 µM in [8]; 70 µM in [9].
Turning to `C#CCCC[C@@H]1OC(=O)[C@H]1CCCC` [(4S)‐3‐butyl‐4‐(pent‐4‐yn‐1‐yl)oxetan‐2‐one (48)], the 50% inhibitory concentration (IC50) came out at 48 µM in test [5] and 44 µM at Rhomboid protease GlpG [6].
As to `O=c1oc(OCCCCCc2ccccc2)c(Cl)c2ccc([N+](=O)[O-])cc12` [4‐Chloro‐7‐nitro‐3‐[(5‐phenylpentyl)oxy]isochromen‐1‐one (21)], the half-maximal inhibitory concentration (IC50) against GlpG protein was 76 µM; in test [3] it was 1.7 µM; in test [4], 25 µM; in test [5] it was 28 µM; on Rhomboid protease AarA, 10 µM; at Rhomboid protease GlpG [2] it was 4.6 µM. Further, the values for the half-maximal inhibitory concentration (IC50) in test [7], in test [8] and in test [9] were 25 µM, 39 µM and 24 µM, respectively.
On to `C#CCCC[C@@H]1OC(=O)[C@H]1CCCCC` [(4S)‐4‐(pent‐4‐yn‐1‐yl)‐3‐pentyloxetan‐2‐one (47)], for which the IC50 in test [5] amounted to 27 µM.

The values above are taken from BindingDB's records for doi:10.1021/acschembio.5b00514 (Technische Universität München, 2015).
